Measured values taken from patent US20230382925A1, “MODULATORS OF CYSTIC FIBROSIS TRANSMEMBRANE CONDUCTANCE REGULATOR” (VERTEX PHARMACEUTICALS INCORPORATED, priority 2020, published 2023).
Where two headings read alike, the source gives them in different places.

Tests used:
[1] = amide bond, 13-membered ring, DMF
CFTR [2] = target: T1, CFTR (Homo sapiens, UniProt P13569); assay: Membrane Potential Dye, Enteroid Assay A; assay type: cell-based; settings: for EC50: read-out: Ent. A EC50
Procedure, shortened: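 Primary human intestinal enteroid cells exposed to compound for 18–24 hours at 37 °C, then loaded 25 min with methyl oxonol membrane potential dye plus CaCC inhibitors. Chloride transport triggered in chloride-free buffer with 10 μM forskolin, 100 μM IBMX and 300 nM Compound III, fluorescence read 15 min; % Activity relative to a triple-combination corrector/potentiator control.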

[3] = amide bond, 13-membered ring, DMF; remark: listed apart in the source
CFTR [4] = target: T1, CFTR; assay: Membrane Potential Dye, Enteroid Assay B; assay type: cell-based
Procedure, shortened: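 Human intestinal enteroid cells exposed to compound 18-24 h at 37 °C, then loaded with methyl oxonol membrane-potential dye plus CaCC blockers. Chloride transport triggered in chloride-free buffer with 10 μM forskolin, 100 μM IBMX, 300 nM Compound III; fluorescence read 15 min, expressed as % of triple-corrector/potentiator combination control.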

T1 sequence (P13569 with tags, fused parts or gaps DEL508-508): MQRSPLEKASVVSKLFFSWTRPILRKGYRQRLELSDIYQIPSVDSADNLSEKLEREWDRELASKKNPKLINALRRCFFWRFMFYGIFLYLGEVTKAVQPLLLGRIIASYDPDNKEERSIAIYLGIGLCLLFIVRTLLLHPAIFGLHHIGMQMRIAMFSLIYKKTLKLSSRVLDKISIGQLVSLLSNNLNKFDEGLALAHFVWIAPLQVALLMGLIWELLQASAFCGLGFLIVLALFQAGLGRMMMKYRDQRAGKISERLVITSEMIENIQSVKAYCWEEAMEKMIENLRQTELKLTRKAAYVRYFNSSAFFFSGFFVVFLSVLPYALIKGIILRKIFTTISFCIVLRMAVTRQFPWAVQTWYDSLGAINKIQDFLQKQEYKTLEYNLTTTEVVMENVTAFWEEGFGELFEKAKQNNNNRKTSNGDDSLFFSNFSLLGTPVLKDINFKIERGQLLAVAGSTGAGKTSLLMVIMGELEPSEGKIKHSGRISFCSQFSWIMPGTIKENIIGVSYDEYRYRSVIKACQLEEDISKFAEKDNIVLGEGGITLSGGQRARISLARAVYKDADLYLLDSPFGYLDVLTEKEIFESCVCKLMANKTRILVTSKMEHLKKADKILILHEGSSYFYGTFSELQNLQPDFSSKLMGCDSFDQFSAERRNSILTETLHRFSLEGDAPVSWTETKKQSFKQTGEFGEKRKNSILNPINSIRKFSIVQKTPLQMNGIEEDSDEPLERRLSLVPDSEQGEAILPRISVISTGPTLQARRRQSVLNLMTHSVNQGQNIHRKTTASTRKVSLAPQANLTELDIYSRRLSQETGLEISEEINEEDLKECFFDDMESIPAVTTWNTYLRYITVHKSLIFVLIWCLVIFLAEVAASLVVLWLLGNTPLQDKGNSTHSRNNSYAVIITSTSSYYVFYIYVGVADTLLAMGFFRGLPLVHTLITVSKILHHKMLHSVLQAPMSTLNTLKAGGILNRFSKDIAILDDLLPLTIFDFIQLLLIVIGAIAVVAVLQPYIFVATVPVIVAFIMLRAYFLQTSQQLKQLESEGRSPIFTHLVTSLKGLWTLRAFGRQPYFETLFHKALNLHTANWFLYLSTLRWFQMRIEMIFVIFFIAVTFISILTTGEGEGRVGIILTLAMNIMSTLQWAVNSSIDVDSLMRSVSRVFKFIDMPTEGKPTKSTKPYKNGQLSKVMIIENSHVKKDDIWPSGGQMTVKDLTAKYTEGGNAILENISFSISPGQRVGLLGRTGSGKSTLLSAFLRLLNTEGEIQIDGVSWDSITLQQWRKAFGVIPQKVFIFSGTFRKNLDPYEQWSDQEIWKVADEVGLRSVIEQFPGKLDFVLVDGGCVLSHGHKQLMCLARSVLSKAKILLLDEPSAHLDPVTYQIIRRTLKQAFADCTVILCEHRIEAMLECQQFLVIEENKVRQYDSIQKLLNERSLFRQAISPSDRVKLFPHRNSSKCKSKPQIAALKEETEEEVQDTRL

Question: Which ring closure, isolated yield ([1]; from Cc1cccc(C)c1-c1cc(OC[C@@H](CC(C)C)NC2CC(OCc3ccccc3)C2)nc(NS(=O)(=O)c2cccc(C(=O)O)c2)n1, HATU/DIEA, 77.3 mM, 15.0 h) does the source give for `Cc1cccc(C)c1-c1cc2nc(n1)NS(=O)(=O)c1cccc(c1)C(=O)N(C1CC(OCc3ccccc3)C1)[C@H](CC(C)C)CO2` (stereo partly drawn) here?
Answer: Its ring closure, isolated yield is 85%.

Question: For `Cc1cccc(C)c1-c1cc2nc(n1)NS(=O)(=O)c1cccc(c1)C(=O)N(C1CC3(CC3)C1)[C@H](CC1CCCCC1)[C@@H](C1CC1)O2` [Compound 1, (10R,11R)-11-(Cyclohexylmethyl)-10-cyclopropyl-6-(2,6-dimethylphenyl)-2,2-dioxo-12-spiro[2.3]hexan-5-yl-9-oxa-2λ^6-thia-3,5,12,19-tetrazatricyclo[12.3.1.14,8]nonadeca-1(18),4(19),5,7,14,16-hexaen-13-one], which “Ent. A Max Activity (%)” value (CFTR [2]) is on record?
Answer: Its value is “+++ (+++ is >60%)”.

Question: And the EC50 (CFTR [2])?
Answer: Its EC50 is under 1000 nM.

Question: And the ring closure, yield after HPLC ([3]; from Cc1cccc(C)c1-c1cc(O[C@H](C2CC2)[C@@H](CC2CCCCC2)NC2CC3(CC3)C2)nc(NS(=O)(=O)c2cccc(C(=O)O)c2)n1, COMU/TEA, 10.8 mM, 25.0 °C, 1.0 h)?
Answer: The ring closure, yield after HPLC was 31%.

Question: Which “Ent. A Max Activity (%)” value (CFTR [2]) does the source give for `Cc1cccc(C)c1-c1cc2nc(n1)NS(=O)(=O)c1cccc(c1)C(=O)N(C1CC(C)(C)C1)[C@H](CC(C)C)CO2` [Compound 28, (11R)-12-(3,3-Dimethylcyclobutyl)-6-(2,6-dimethylphenyl)-11-isobutyl-2,2-dioxo-9-oxa-2λ^6-thia-3,5,12,19-tetrazatricyclo[12.3.1.14,8]nonadeca-1(18),4(19),5,7,14,16-hexaen-13-one] here?
Answer: The value was “+++ (+++ is >60%)”.

Question: And the EC50 (CFTR [2])?
Answer: Its EC50 is under 1000 nM.

Question: What about the ring closure, yield after HPLC ([3]; from Cc1cccc(C)c1-c1cc(OC[C@@H](CC(C)C)NC2CC(C)(C)C2)nc(NS(=O)(=O)c2cccc(C(=O)O)c2)n1, HATU/DIEA, 18.9 mM, 25.0 °C, 2.0 h) of the same compound?
Answer: Its ring closure, yield after HPLC is 60%.

Question: With `Cc1cccc(C)c1-c1cc2nc(n1)NS(=O)(=O)c1cccc(c1)C(=O)N(C1CC(OCc3ccccc3)C1)[C@H](CC(C)(C)C)CO2` (stereo partly drawn) as the compound, how does the ring closure, isolated yield ([1]; from Cc1cccc(C)c1-c1cc(OC[C@@H](CC(C)(C)C)NC2CC(OCc3ccccc3)C2)nc(NS(=O)(=O)c2cccc(C(=O)O)c2)n1, COMU/DIEA, 65.1 mM, 25.0 °C, 16.0 h) read?
Answer: Its ring closure, isolated yield is 82%.

Question: What does the source list for `Cc1cccc(C)c1-c1cc2nc(n1)NS(=O)(=O)c1cccc(c1)C(=O)N(C1CC3(CCN(CC(F)(F)F)CC3)C1)[C@H](CC(C)C)CO2` [Compound 18, (11R)-6-(2,6-dimethylphenyl)-11-isobutyl-2,2-dioxo-12-[7-(2,2,2-trifluoroethyl)-7-azaspiro[3.5]nonan-2-yl]-9-oxa-2λ^6-thia-3,5,12,19-tetrazatricyclo[12.3.1.14,8]nonadeca-1(18),4(19),5,7,14,16-hexaen-13-one]?
Answer: Ent. B Max Activity (%) (CFTR [4]): +++ (+++ is >60%); EC50 (CFTR [4]; read-out: Ent. B EC50): < 1000 nM; Ent. A Max Activity (%) (CFTR [2]): +++ (+++ is >60%); EC50 (CFTR [2]): < 1000 nM; ring closure, yield after HPLC ([3]; from Cc1cccc(C)c1-c1cc(OC[C@@H](CC(C)C)NC2CC3(CCN(CC(F)(F)F)CC3)C2)nc(NS(=O)(=O)c2cccc(C(=O)O)c2)n1, HATU/DIEA, 25.0 °C, 2.0 h, 2 steps): 17%

Question: With `Cc1cccc(C)c1-c1cc2nc(n1)NS(=O)(=O)c1cncc(n1)C(=O)N(C1CC3(CC3)C1)[C@H](CC(C)C)CO2` [Compound 62, (11R)-6-(2,6-Dimethylphenyl)-11-isobutyl-2,2-dioxo-12-spiro[2.3]hexan-5-yl-9-oxa-2λ^6-thia-3,5,12,16,18,19-hexazatricyclo[12.3.1.14,8]nonadeca-1(18),4(19),5,7,14,16-hexaen-13-one] as the compound, how does the “Ent. B Max Activity (%)” value (CFTR [4]) read?
Answer: The value was “+++ (+++ is >60%)”.

Question: And the EC50 (CFTR [4]; read-out: Ent. B EC50)?
Answer: The EC50 was under 1000 nM.

Question: And the ring closure, yield after HPLC ([3]; from Cc1cccc(C)c1-c1cc(OC[C@@H](CC(C)C)NC2CC3(CC3)C2)nc(NS(=O)(=O)c2cncc(C(=O)O)n2)n1, HATU/DIEA, 15.2 mM, 12.0 h)?
Answer: Its ring closure, yield after HPLC is 65%.

Question: With `Cc1cccc(C)c1-c1cc2cc(n1)NS(=O)(=O)c1cccc(n1)C(=O)N(C1CC3(CC3)C1)[C@H](CC(C)C)CO2` [Compound 197, (11R)-6-(2,6-Dimethylphenyl)-11-isobutyl-2,2-dioxo-12-spiro[2.3]hexan-5-yl-9-oxa-2λ^6-thia-3,5,12,18-tetrazatricyclo[12.3.1.14,8]nonadeca-1(18),4(19),5,7,14,16-hexaen-13-one] as the compound, how does the “Ent. B Max Activity (%)” value (CFTR [4]) read?
Answer: The value was “+++ (+++ is >60%)”.

Question: And the EC50 (CFTR [4]; read-out: Ent. B EC50)?
Answer: The EC50 was under 1000 nM.

Question: And the ring closure, yield after HPLC ([3]; from Cc1cccc(C)c1-c1cc(OC[C@@H](CC(C)C)NC2CC3(CC3)C2)cc(NS(=O)(=O)c2cccc(C(=O)O)n2)n1, HATU/DIEA, 27.1 mM, 2.0 h)?
Answer: The ring closure, yield after HPLC was 59%.

Question: With `Cc1cccc(C)c1-c1cc2nc(n1)NS(=O)(=O)c1cccc(c1)C(=O)N(C1CC3(CCOCC3)C1)[C@H](CC(C)C)CO2` [Compound 31, (11R)-6-(2,6-Dimethylphenyl)-11-isobutyl-12-(7-oxaspiro[3.5]nonan-2-yl)-2,2-dioxo-9-oxa-2λ^6-thia-3,5,12,19-tetrazatricyclo[12.3.1.14,8]nonadeca-1(18),4(19),5,7,14,16-hexaen-13-one] as the compound, how does the “Ent. A Max Activity (%)” value (CFTR [2]) read?
Answer: Its value is “+++ (+++ is >60%)”.

Question: What about the EC50 (CFTR [2]) of the same compound?
Answer: Its EC50 is under 1000 nM.

Question: And the ring closure, yield after HPLC ([3]; from Cc1cccc(C)c1-c1cc(OC[C@@H](CC(C)C)NC2CC3(CCOCC3)C2)nc(NS(=O)(=O)c2cccc(C(=O)O)c2)n1, HATU/DIEA, 25.0 °C, 2.0 h, 2 steps)?
Answer: Its ring closure, yield after HPLC is 28%.

Question: Which “Ent. B Max Activity (%)” value (CFTR [4]; Table 9) does the source give for `Cc1cccc(C)c1-c1cc2nc(n1)NS(=O)(=O)c1cc(n(C)n1)C(=O)N(C1CC3(CC3)C1)[C@H](CC(C)C)CO2` [Compound 74, (10R)-15-(2,6-Dimethylphenyl)-10-isobutyl-6-methyl-3,3-dioxo-9-spiro[2.3]hexan-5-yl-12-oxa-3λ^6-thia-2,5,6,9,16,17-hexazatricyclo[11.3.1.14,7]octadeca-1(17),4,7(18),13,15-pentaen-8-one] here?
Answer: Its value is “+++ (+++ is >60%)”.

Question: What about the EC50 (CFTR [4]; Table 9, read-out: Ent. B EC50) of the same compound?
Answer: Its EC50 is under 1000 nM.

Question: What about the ring closure, yield after HPLC ([3]; from Cc1cccc(C)c1-c1cc(OC[C@@H](CC(C)C)NC2CC3(CC3)C2)nc(NS(=O)(=O)c2cc(C(=O)O)n(C)n2)n1, HATU/DIPEA, 4.9 mM, 6.0 h, 2 steps) of the same compound?
Answer: Its ring closure, yield after HPLC is 10%.

Question: Which “Ent. A Max Activity (%)” value (CFTR [2]) does the source give for `Cc1cccc(C)c1-c1cc2nc(n1)NS(=O)(=O)c1cccc(c1)C(=O)N(C1CC3(CCC3)C1)[C@H](CC(C)C)CO2` [Compound 32, (11R)-6-(2,6-dimethylphenyl)-11-isobutyl-2,2-dioxo-12-spiro[3.3]heptan-2-yl-9-oxa-2λ^6-thia-3,5,12,19-tetrazatricyclo[12.3.1.14,8]nonadeca-1(18),4(19),5,7,14,16-hexaen-13-one] here?
Answer: The value was “++ (++ is 30-60%)”.

Question: What about the EC50 (CFTR [2]) of the same compound?
Answer: The EC50 was under 1000 nM.

Question: And the ring closure, yield after HPLC ([3]; from Cc1cccc(C)c1-c1cc(OC[C@@H](CC(C)C)NC2CC3(CCC3)C2)nc(NS(=O)(=O)c2cccc(C(=O)O)c2)n1, HATU/DIEA, 25.0 °C, 2.0 h, 2 steps)?
Answer: Its ring closure, yield after HPLC is 44%.

Question: Which results are given for `Cc1cccc(C)c1-c1cc2nc(n1)NS(=O)(=O)c1cccc(c1)C(=O)N(C1CC3(CC3)C1)[C@H](CC(C)(C)C)CO2` [Compound 182, (11R)-6-(2,6-Dimethylphenyl)-11-(2,2-dimethylpropyl)-2,2-dioxo-12-spiro[2.3]hexan-5-yl-9-oxa-2λ^6-thia-3,5,12,19-tetrazatricyclo[12.3.1.14,8]nonadeca-1(18),4(19),5,7,14,16-hexaen-13-one]?
Answer: Ent. B Max Activity (%) (CFTR [4]): +++ (+++ is >60%); EC50 (CFTR [4]; read-out: Ent. B EC50): < 1000 nM; Ent. A Max Activity (%) (CFTR [2]): +++ (+++ is >60%); EC50 (CFTR [2]): < 1000 nM; ring closure, yield after HPLC ([3]; from Cc1cccc(C)c1-c1cc(OC[C@@H](CC(C)(C)C)NC2CC3(CC3)C2)nc(NS(=O)(=O)c2cccc(C(=O)O)c2)n1, HATU/DIEA, 26.5 mM, 6.0 h): 54%

Question: What does the source list for `Cc1cccc(C)c1-c1cc2nc(n1)NS(=O)(=O)c1cccc(c1)C(=O)N(C1CC3(CC3)C1)[C@H](CCC(C)C)CO2` [Compound 3, (11R)-6-(2,6-Dimethylphenyl)-11-isopentyl-2,2-dioxo-12-spiro[2.3]hexan-5-yl-9-oxa-2λ^6-thia-3,5,12,19-tetrazatricyclo[12.3.1.14,8]nonadeca-1(18),4(19),5,7,14,16-hexaen-13-one]?
Answer: Ent. A Max Activity (%) (CFTR [2]): ++ (++ is 30-60%); EC50 (CFTR [2]): < 1000 nM; ring closure, yield after HPLC ([3]; from Cc1cccc(C)c1-c1cc(OC[C@@H](CCC(C)C)NC2CC3(CC3)C2)nc(NS(=O)(=O)c2cccc(C(=O)O)c2)n1, HATU/DIEA, 25.0 °C, 3.0 h, 2 steps): 8%

Question: What does the source list for `Cc1cc(F)cc(C)c1-c1cc2nc(n1)NS(=O)(=O)c1cccc(c1)C(=O)N(C1CC3(CC3)C1)[C@H](CC(C)C)CO2` [Compound 10, (11R)-6-(4-Fluoro-2,6-dimethyl-phenyl)-11-isobutyl-2,2-dioxo-12-spiro[2.3]hexan-5-yl-9-oxa-2λ^6-thia-3,5,12,19-tetrazatricyclo[12.3.1.14,8]nonadeca-1(18),4(19),5,7,14,16-hexaen-13-one]?
Answer: Ent. B Max Activity (%) (CFTR [4]; Table 9): +++ (+++ is >60%); EC50 (CFTR [4]; Table 9, read-out: Ent. B EC50): < 1000 nM; ring closure, yield after HPLC ([3]; from Cc1cc(F)cc(C)c1-c1cc(OC[C@@H](CC(C)C)NC2CC3(CC3)C2)nc(NS(=O)(=O)c2cccc(C(=O)O)c2)n1, HATU/TEA, 53.7 mM, 25.0 °C, 4.0 h): 48%

Question: For `Cc1cccc(C)c1-c1cc2nc(n1)NS(=O)(=O)c1cccc(c1)C(=O)N(C1CC3(CC3)C1)[C@H](C)CO2` [Compound 126, (11R)-6-(2,6-dimethylphenyl)-11-methyl-12-{spiro[2.3]hexan-5-yl}-9-oxa-2λ^6-thia-3,5,12,19-tetraazatricyclo[12.3.1.14,8]nonadeca-1(17),4(19),5,7,14(18),15-hexaene-2,2,13-trione], which “Ent. A Max Activity (%)” value (CFTR [2]) is on record?
Answer: Its value is “++ (++ is 30-60%)”.

Question: What about the EC50 (CFTR [2]) of the same compound?
Answer: The EC50 was 1000 to 3000 nM.

Question: What about the ring closure, yield after HPLC ([3]; from Cc1cccc(C)c1-c1cc(OC[C@@H](C)NC2CC3(CC3)C2)nc(NS(=O)(=O)c2cccc(C(=O)O)c2)n1, HATU/TEA, 20.9 mM, 96.0 h) of the same compound?
Answer: Its ring closure, yield after HPLC is 47%.
